Assay results: EP4737449A1 (Changchun Genescience Pharmaceutical Co., Ltd., priority 2023, dated 2025)
Like-named read-outs stand apart in the source and are kept apart here.

Key:
[1] = test system: human-derived lung cancer LU5269 subcutaneous xenograft; experiment: Efficacy in human-derived lung cancer LU5269 subcutaneous xenograft model; assay type: in vivo, NOD/SCID mice; conditions: PO, QD*21
Description: Tumor tissues were collected from LU5269 lung cancer xenograft model bearing mice, cut into tumor masses with a diameter of 2-3 mm, and seeded subcutaneously in the right anterior scapula of NOD/SCID mice.
Before administration, all animals were weighed and tumor volume was measured using a vernier caliper. When the tumor grew to have an average volume of about 140 mm^3, group-based drug administration was performed based on tumor size (vehicle: 0.2% HPC + 0.5% Tween 80). Since tumor volume can affect the effectiveness of treatment, random grouping design was used to group the mice according to tumor volume to ensure that the tumor volumes in different groups were similar. Tumor volume calculation formula: Tumor volume (mm^3) = 1/2 × (a ×b^2) (wherein a denotes the long diameter and b denotes the short diameter).
Table 12 Route, dose and regimen of administration in the subcutaneous xenograft model

[2] = Pharmacokinetic study in SD rats; assay type: in vivo; conditions: rat, plasma; for AUC(0-t) at 24 h / AUC(0-t): read-out: AUC0-24h
Description: On the day of administration, the test sample was prepared using a 2% HPC + 5% solutol aqueous solution vehicle formula, and the drug solution was prepared and kept ready for use.
The PO group was given the designated dose. The animals in the oral administration group were fasted overnight, allowed free access to water, and returned to food 3 hours after administration.
The animals were weighed before administration, and the dose was calculated based on the body weight. The drug was administered once via PO on the day of administration. After administration in the PO group, blood was collected from the jugular vein at 0.083 h, 0.25 h, 0.5 h, 1.0 h, 2.0 h, 4.0 h, 6.0 h, 8.0 h and 24 h, about 200 µL each time, placed in EDTA-K2 anticoagulation blood collection tubes, centrifuged at 4000 rpm for 10 min (4°C), and plasma was separated within 1 h. The plasma was drawn into labeled EP tubes (the label should at least indicate the subject code, animal number, collection time, collection date, etc.), and stored at -80°C for testing. The process from blood collection to centrifugation was carried out in ice bath. The concentration of the test sample in SD rat plasma was detected using validated LC-MS/MS.

[3] = Pharmacokinetic study in beagles; assay type: in vivo; conditions: dog, plasma; for bioavailability: IV 1mpk/PO 2mpk
Description: On the day of administration, the test sample was prepared using a 5%DMSO+5%Solutol+90%Saline vehicle formula, and the drug solution was prepared and kept ready for use.
The IV group received a dose of 1 mg/kg, and the PO group received a dose of 2 mg/kg. The animals were fasted overnight before administration.
The animals were weighed before administration, and the dose was calculated based on the body weight. The drug was administered once via IV and PO on the day of administration. After administration, blood was collected from an appropriate vein at 0.083 h, 0.25 h, 0.5 h, 1.0 h, 2.0 h, 4.0 h, 6.0 h, 8.0 h and 24.0 h, about 1 mL each time, placed in EDTA-K2 anticoagulation blood collection tubes, centrifuged at 4000 rpm for 10 min (4°C), and plasma was separated within 1 h. The plasma was drawn into labeled EP tubes (the label should at least indicate the subject code, animal number, collection time, collection date, etc.), and stored at -80°C for testing. The process from blood collection to centrifugation was carried out in ice bath. The animals were allowed to eat and have free access to water 3 h after administration. The concentration of the test sample in beagle plasma was detected using validated LC-MS/MS.

[4] = test system: NUGC-3 human gastric cancer subcutaneous xenograft; experiment: Efficacy in NUGC-3 human gastric cancer subcutaneous xenograft model; assay type: in vivo, BALB/c Nude mouse; conditions: PO, 19 days
Description: NUGC-3 cells were cultured in RPMI-1640 medium containing 10% FBS. NUGC-3 cells in the exponential growth phase were collected, the total amount of cells required was calculated, the cells were re-suspended in PBS to a suitable concentration and then an equal volume of Matrigel was added for subcutaneous tumor seeding in BALB/c Nude mice. The concentration of the cell suspension was 5x10^6/0.1 mL.
0.1 mL (5×10^6 NUGC-3 cells) of cell suspension (PBS : Matrigel = 1:1, V/V) was seeded subcutaneously on the right back of each mouse. When the tumor grew to have an average volume of 128.4 mm^3, group-based drug administration began (vehicle: 0.2% HPC + 0.5% Tween 80), and the average tumor volume of the enrolled animals was 146.1 mm^3.
Table 11 Route, dose and regimen of administration in the subcutaneous xenograft model

## CN1CC[C@@H](Nc2cccc3c(CC(F)(F)F)c(C#CCNC(=O)c4cnn(C(C)(C)C)c4N)nn23)[C@@H](F)C1 [Compound 047]
[1]; 50mpk
  TGI: 82%
[1]; 75mpk
  TGI: 111%
[1]; 100 mpk
  TGI: 119%
[1]; 150mpk
  TGI: 119%
[2]; 50 mg/kg, po 50 mpk
  Cmax: 13200 ng/mL
  AUC(0-t) at 24 h: 113 µg·h/mL
[2]; 300 mg/kg, po 300 mpk
  Cmax: 32800 ng/mL
  AUC(0-t) at 24 h: 431 µg·h/mL
[3]; 1 mg/kg, IV 1mpk
  AUC(0-t): 1400 ng·h/mL
  C0: 414 ng/mL
  Vd: 3.8 L/kg
  clearance: 12.8 mL/min/kg
  half-life: 336 min
[3]; 2 mg/kg, PO 2mpk
  AUC(0-t): 1640 ng·h/mL
  Cmax: 199 ng/mL
  Tmax: 2 h
  half-life: 840 min
[3]
  bioavailability: 42%
[4]; 50 mpk, BID
  tumor volume inhibition rate TGI: 68%
[4]; 100 mpk, BID
  tumor volume inhibition rate TGI: 93%
[4]; 150 mpk, BID
  tumor volume inhibition rate TGI: 103%
[4]; 150 mpk, QD
  tumor volume inhibition rate TGI: 91%

## CNC(=O)c1ccc(NCC#Cc2cc3c(N[C@@H]4CCN(C)C[C@@H]4F)cccc3n2CC(F)(F)F)c(OC)c1 [Control compound, reference compound]
[1]; 100 mpk
  TGI: 119%
[2]; 50 mg/kg, po 50 mpk
  Cmax: 11500 ng/mL
  AUC(0-t): 148 µg·h/mL
[2]; 300 mg/kg, po 300 mpk
  Cmax: 25400 ng/mL
  AUC(0-t): 416 µg·h/mL
[3]; beagle, 1 mg/kg, IV 1mpk
  AUC(0-t): 849 ng·h/mL
  C0: 277 ng/mL
  Vd: 6.7 L/kg
  clearance: 20.4 mL/min/kg
  half-life: 288 min
[3]; beagle, 2 mg/kg
  bioavailability: 82%
[3]; beagle, 2 mg/kg, PO 2mpk
  AUC(0-t): 1490 ng·h/mL
  Cmax: 101 ng/mL
  Tmax: 4.7 h
  half-life: 402 min
[4]; 50 mpk, QD
  tumor volume inhibition rate TGI: 52%
[4]; 100 mpk, QD
  tumor volume inhibition rate TGI: 77%
